Results as given in patent US20060069132A1, “Azolecarboxamide herbicides” (priority 2004, published 2006).

How the values were obtained:
goosegrass = assay: Test E pre-/postemergence herbicide test; assay type: in vivo, Eleusine indica
In short: (§1)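 Visual 0–100 rating vs untreated controls (0 = no effect, 100 = complete control), 12–14 d after treatment in greenhouse. Pre- and postemergence (2–18 cm, 1- to 4-leaf) applications; compounds in non-phytotoxic solvent with surfactant.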

common mallow = assay: Test E pre-/postemergence herbicide test; assay type: in vivo, Malva sylvestris
In short: as §1

soybean = assay: Test C pre-/postemergence herbicide test; assay type: in vivo, Glycine max; details: for Soybean plant response rating: Preemergence, 500 g ai/ha, scale 0 to 100, 0 no effect, 100 complete control
In short: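 Visual ratings on a 0–100 scale (100 = complete control) made versus untreated controls after 12 to 14 greenhouse days. Test chemicals, formulated in surfactant-containing non-phytotoxic solvent, applied preemergence to planted seeds or postemergence to 1- to 4-leaf plants (2 to 18 cm).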

downy bromegrass = assay: Test E pre-/postemergence herbicide test; assay type: in vivo, Bromus tectorum
In short: as §1

green foxtail = assay: Test E pre-/postemergence herbicide test; assay type: in vivo, Setaria viridis
In short: as §1

common sowthistle = assay: Test E pre-/postemergence herbicide test; assay type: in vivo, Sonchus oleraceous
In short: as §1

field bindweed = assay: Test E pre-/postemergence herbicide test; assay type: in vivo, Convolvulus arvensis
In short: as §1

[1] = Postemergence, 500 g ai/ha, scale 0 to 100
[2] = Postemergence, 250 g ai/ha, scale 0 to 100
[3] = Preemergence, 62 g ai/ha, scale 0 to 100
[4] = Preemergence, 125 g ai/ha, scale 0 to 100
[5] = Preemergence, 250 g ai/ha, scale 0 (no effect) to 100 (complete control)
[6] = Preemergence, 500 g ai/ha, scale 0 (no effect) to 100 (complete control)
[7] = postemergence, 125 g ai/ha, scale 0 to 100
[8] = postemergence, 62 g ai/ha, scale 0 to 100

## CCNC(=O)c1ccc(F)c(NC(=O)c2cn(C(C)(C)C)nc2CC)c1 [Compound 193]
goosegrass; [1]
  Plant response rating, Goosegrass: 85
goosegrass; [2]
  Plant response rating, Goosegrass: 80
goosegrass; [3]
  Plant response rating, Goosegrass: 30
goosegrass; [4]
  Plant response rating, Goosegrass: 80
goosegrass; [5]
  Plant response rating, Goosegrass: 90
goosegrass; [6]
  Plant response rating, Goosegrass: 95
goosegrass; [7]
  Plant response rating, Goosegrass: 70
goosegrass; [8]
  Plant response rating, Goosegrass: 20
Common mallow; [1]
  Plant response rating, Mallow: 90
Common mallow; [2]
  Plant response rating, Mallow: 90
Common mallow; [3]
  Plant response rating, Mallow: 60
Common mallow; [4]
  Plant response rating, Mallow: 95
Common mallow; [5]
  Plant response rating, Mallow: 95
Common mallow; [6]
  Plant response rating, Mallow: 95
Common mallow; [7]
  Plant response rating, Mallow: 60
Common mallow; [8]
  Plant response rating, Mallow: 20
soybean; 62 g ai/ha, preemergence, scale 0 to 100
  Plant response rating, Soybean: 30
soybean; 125 g ai/ha, scale 0 (no effect) to 100 (complete control), visual, 12 to 14 days, preemergence
  Plant response rating, Soybean: 30
soybean; 250 g ai/ha, scale 0-100, preemergence
  Plant response rating, Soybean: 50
soybean
  Soybean plant response rating: 100
Downy bromegrass; [1]
  Plant response rating, Bromegrass, Downy: 80
Downy bromegrass; [2]
  Plant response rating, Bromegrass, Downy: 70
Downy bromegrass; [3]
  Plant response rating, Bromegrass, Downy: 10
Downy bromegrass; [4]
  Plant response rating, Bromegrass, Downy: 30
Downy bromegrass; [5]
  Plant response rating, Bromegrass, Downy: 80
Downy bromegrass; [6]
  Plant response rating, Bromegrass, Downy: 90
Downy bromegrass; [7]
  Plant response rating, Bromegrass, Downy: 30
Downy bromegrass; [8]
  Plant response rating, Bromegrass, Downy: 20
Green foxtail; [1]
  Plant response rating, Foxtail, Green: 90
Green foxtail; [2]
  Plant response rating, Foxtail, Green: 50
Green foxtail; [3]
  Plant response rating, Foxtail, Green: 10
Green foxtail; [4]
  Plant response rating, Foxtail, Green: 30
Green foxtail; [5]
  Plant response rating, Foxtail, Green: 80
Green foxtail; [6]
  Plant response rating, Foxtail, Green: 100
Green foxtail; [7]
  Plant response rating, Foxtail, Green: 20
Green foxtail; [8]
  Plant response rating, Foxtail, Green: 10
Common sowthistle; [1]
  Plant response rating, Sowthistle: 95
Common sowthistle; [2]
  Plant response rating, Sowthistle: 95
Common sowthistle; [3]
  Plant response rating, Sowthistle: 80
Common sowthistle; [4]
  Plant response rating, Sowthistle: 95
Common sowthistle; [5]
  Plant response rating, Sowthistle: 95
Common sowthistle; [6]
  Plant response rating, Sowthistle: 95
Common sowthistle; [7]
  Plant response rating, Sowthistle: 60
Common sowthistle; [8]
  Plant response rating, Sowthistle: 10
Field bindweed; [1]
  Plant response rating, Bindweed, Field: 50
Field bindweed; [2]
  Plant response rating, Bindweed, Field: 50
Field bindweed; [3]
  Plant response rating, Bindweed, Field: 50
Field bindweed; [4]
  Plant response rating, Bindweed, Field: 50
Field bindweed; [5]
  Plant response rating, Bindweed, Field: 80
Field bindweed; [6]
  Plant response rating, Bindweed, Field: 85
Field bindweed; [8]
  Plant response rating, Bindweed, Field: 20

## CCn1nc(C(C)(C)C)cc1C(=O)Nc1cc(C(=O)N(C)C)ccn1 [Compound 156, 2-[[[3-(1,1-dimethylethyl)-1-ethyl-1H-pyrazol-5-yl]carbonyl]amino]-N,N-dimethyl-4-pyridinecarboxamide]
goosegrass; [1]
  Plant response rating, Goosegrass: 98
goosegrass; [2]
  Plant response rating, Goosegrass: 98
goosegrass; [3]
  Plant response rating, Goosegrass: 95
goosegrass; [4]
  Plant response rating, Goosegrass: 95
goosegrass; [5]
  Plant response rating, Goosegrass: 100
goosegrass; [6]
  Plant response rating, Goosegrass: 100
goosegrass; [7]
  Plant response rating, Goosegrass: 98
goosegrass; [8]
  Plant response rating, Goosegrass: 95
Common mallow; [1]
  Plant response rating, Mallow: 100
Common mallow; [2]
  Plant response rating, Mallow: 95
Common mallow; [3]
  Plant response rating, Mallow: 70
Common mallow; [4]
  Plant response rating, Mallow: 100
Common mallow; [5]
  Plant response rating, Mallow: 100
Common mallow; [6]
  Plant response rating, Mallow: 100
Common mallow; [7]
  Plant response rating, Mallow: 90
Common mallow; [8]
  Plant response rating, Mallow: 80
soybean; Glycine max, pre-emergence, 62 g ai/ha, preemergence, scale 0 to 100, read-out: Plant response rating, Soybean
  plant injury at 62 g/ha: 33%
soybean; Glycine max, pre-emergence, 125 g ai/ha, scale 0 (no effect) to 100 (complete control), visual, 12 to 14 days, read-out: Plant response rating, Soybean
  plant injury at 125 g/ha: 50%
soybean
  Soybean plant response rating: 100
Downy bromegrass; [1]
  Plant response rating, Bromegrass, Downy: 100
Downy bromegrass; [2]
  Plant response rating, Bromegrass, Downy: 100
Downy bromegrass; [3]
  Plant response rating, Bromegrass, Downy: 60
Downy bromegrass; [4]
  Plant response rating, Bromegrass, Downy: 80
Downy bromegrass; [5]
  Plant response rating, Bromegrass, Downy: 100
Downy bromegrass; [6]
  Plant response rating, Bromegrass, Downy: 100
Downy bromegrass; [7]
  Plant response rating, Bromegrass, Downy: 100
Downy bromegrass; [8]
  Plant response rating, Bromegrass, Downy: 90
Green foxtail; [1]
  Plant response rating, Foxtail, Green: 100
Green foxtail; [2]
  Plant response rating, Foxtail, Green: 100
Green foxtail; [3]
  Plant response rating, Foxtail, Green: 100
Green foxtail; [4]
  Plant response rating, Foxtail, Green: 100
Green foxtail; [5]
  Plant response rating, Foxtail, Green: 100
Green foxtail; [6]
  Plant response rating, Foxtail, Green: 100
Green foxtail; [7]
  Plant response rating, Foxtail, Green: 95
Green foxtail; [8]
  Plant response rating, Foxtail, Green: 75
Common sowthistle; [1]
  Plant response rating, Sowthistle: 100
Common sowthistle; [2]
  Plant response rating, Sowthistle: 100
Common sowthistle; [3]
  Plant response rating, Sowthistle: 60
Common sowthistle; [4]
  Plant response rating, Sowthistle: 100
Common sowthistle; [5]
  Plant response rating, Sowthistle: 100
Common sowthistle; [6]
  Plant response rating, Sowthistle: 100
Common sowthistle; [7]
  Plant response rating, Sowthistle: 90
Common sowthistle; [8]
  Plant response rating, Sowthistle: 90
Field bindweed; [1]
  Plant response rating, Bindweed, Field: 100
Field bindweed; [2]
  Plant response rating, Bindweed, Field: 80
Field bindweed; [3]
  Plant response rating, Bindweed, Field: 60
Field bindweed; [4]
  Plant response rating, Bindweed, Field: 90
Field bindweed; [5]
  Plant response rating, Bindweed, Field: 100
Field bindweed; [6]
  Plant response rating, Bindweed, Field: 100
Field bindweed; [7]
  Plant response rating, Bindweed, Field: 65
Field bindweed; [8]
  Plant response rating, Bindweed, Field: 65
